According to patent US20260284082A1, “TARGETING THE PANX1-P2Y2R-TRPV4 PATHWAY TO TREAT LUNG ISCHEMIA-REPERFUSION INJURY” (UNIVERSITY OF VIRGINIA PATENT FOUNDATION, priority 2023, published 2026):

Legend:
[1] = system: murine pulmonary microvascular endothelial cells; details: murine PMVECs, acute hypoxia-reoxygenation; cited from earlier work
human PMVECs = test: Baseline Ca2+ signaling in human PMVECs exposed to acute HR (Calbryte 520); type: cell-based; details: ARC 10 μM; 1 h hypoxia + 10 min reoxygenation
Procedure: Exposure of PMVECs to acute HR and Ca^2+ imaging in PMVECs: Primary human and murine pulmonary microvascular endothelial cells (PMVECs; Cell Biologics, Chicago, IL) were cultured on gelatin-coated flasks in endothelial cell medium (Cell Biologics). For acute HR exposure, PMVECs were washed with PBS, and serum-free/glucose-free endothelial cell medium was added. PMVECs were placed in a humidified, sealed hypoxia chamber (Billups-Rothenberg, San Diego, CA), whereupon the chamber was flushed with 95% nitrogen/5% CO2 for 20 minutes and placed in a 37° C. incubator to initiate hypoxia. After 1 hour of hypoxia, the chamber was opened to terminate hypoxia. […]
Ca^2+ imaging in human and mouse PMVECs was performed using an Andor Dragonfly 505 spinning-disk confocal imaging system with Borealis illumination and an Integrated Laser Engine solid-state laser source (Andor Technology, Belfast, UK), coupled with a Leica Dmi8 inverted microscope (Leica) and 63× objective (NA 1.47)^13 Images were acquired at 30 frames per second using Fusion 2.3 (Oxford Instruments, Belfast, UK) and an electron-multiplying CCD camera (iXon888). Calbryte 520 AM was excited at 488 nm, and emitted fluorescence was captured using a 525/50 bandpass emission filter. […]

| Structure (SMILES) | HR-induced secretion of CXCL1/KC [1] | HR-induced increase in baseline endothelial Ca signaling (human PMVECs) |
| --- | --- | --- |
| O=C(NC1(c2ccccc2)CC1)c1c(CN2CCC(N3CCCCC3)CC2)c(-c2cccc(C(F)(F)F)c2)nc2cc(Br)ccc12 [GSK219, GSK2193874] | attenuated | – |
| Cc1ccc2c(c1)C=Cc1cc(C)ccc1C2c1cn(Cc2ccc(C(=O)Nc3nn[nH]n3)o2)c(=O)[nH]c1=S [ARC, AR-C 118925XX] | – | blocked |
